Results as given in patent publication US11472788B2, “Benzoimidazoles as selective inhibitors of indoleamine 2,3-dioxygenases” (BEIGENE, LTD., priority 2017, dated 2022).

Molecular target: cellular IDO1 in HeLa cells (Homo sapiens (Human), UniProt P14902)
Experiment: HeLa Cell-Based IDO1 Kyn (Kynurenine) Production Assay
Conditions: IFN-γ induced IDO1, 48 hours incubation, Kyn absorbance at 480 nm
Description: HeLa Cell-Based IDO1 Kyn (Kynurenine) Production Assay:
The inhibitory activity of IDO1 inhibitors is determined by using a colorimetric reaction to measure Kyn generated from L-Trp (L-Tryptophon) oxidation by cellular IDO1 in HeLa cells after induction of IDO1 expression by IFN-γ.
Hela cells were obtained from the American Type Culture Collection and recovered in 10% FBS-containing phenol red-free DMEM medium. Cells were plated onto a 96-well plate (100 μl/well) at 8000 cells per well and kept at 37° C. in a humidified incubator supplied with 5% CO2. 4 hours later, Human recombinant IFN-γ (8901SC, CST) was added to cells (final concentration 100 ng/mL) to stimulate endogenous IDOL. Compounds at different concentrations diluted in dimethylsulfoxide (DMSO) were added simultaneously with IFN-γ and 0.4 mM L-Trp. Cells were kept at 37° C. in a humidified incubator supplied with 5% CO2. After 48 hours of incubation, 100 μl supernatant from each well was removed to a new plate. The protein in the medium was precipitated with the addition of 8 μl 6N trichloroacetic acid. The plate was incubated at 60° C. for 30 minutes and then centrifugation at 2500 rpm for 10 minutes to remove sediments. 80 μl supernatants were carefully removed to a new clean plate and added with an equal volume of 2% 4-(Dimethylamino)benzaldehyde (D2004, sigma) dissolved in glacial acetic acid. The absorbance at 480 nm wavelength derived from Kyn was measured using a PHERAstar FS plate reader (BMG LABTECH). The IC5C for each compound was derived from fitting the dose-response data to the four-parameter logistic model by using XLfit software (IDBS).

Chain of cellular IDO1 in HeLa cells (P14902 whole entry): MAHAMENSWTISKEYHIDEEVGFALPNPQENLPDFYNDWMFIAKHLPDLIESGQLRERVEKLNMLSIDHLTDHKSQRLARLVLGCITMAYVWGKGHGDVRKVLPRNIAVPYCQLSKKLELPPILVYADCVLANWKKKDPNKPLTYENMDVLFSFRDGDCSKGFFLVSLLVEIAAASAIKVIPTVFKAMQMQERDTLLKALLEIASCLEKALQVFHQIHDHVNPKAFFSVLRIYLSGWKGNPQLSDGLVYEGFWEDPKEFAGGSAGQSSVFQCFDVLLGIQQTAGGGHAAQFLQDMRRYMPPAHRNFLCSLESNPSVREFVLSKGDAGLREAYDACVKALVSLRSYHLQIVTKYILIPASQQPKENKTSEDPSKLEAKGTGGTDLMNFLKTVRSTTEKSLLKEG

Compared with `CC(c1nc2c(F)c(F)cc(Cl)c2[nH]1)[C@H]1CC[C@@H](c2ccnc3ccc(F)cc32)CC1` (stereo partly drawn) [Example B172, 4-((1s,4s)-4-(1-(7-chloro-4,5-difluoro-1H-benzo[d]imidazol-2-yl)ethyl)cyclohexyl)-6-fluoroquinoline], `C[C@@H](c1nc2cc(F)c(F)c(Cl)c2[nH]1)[C@H]1CC[C@@H](c2ccnc3ccc(F)cc32)CC1` [Example B189, 4-((1R,4s)-4-((S)-1-(7-chloro-5,6-difluoro-1H-benzo[d]imidazol-2-yl)ethyl)cyclohexyl)-6-fluoroquinoline] is 2.8-fold higher in EC50: 16.4 nM for the first, 45.9 nM for the second.

Compared with `C[C@@H](c1nc2cc3ccccc3cc2[nH]1)[C@H]1CC[C@@H](c2ccnc3ccc(F)cc32)CC1` [Example B173, 2-((R)-1-((1s,4S)-4-(6-fluoroquinolin-4-yl)cyclohexyl)ethyl)-1H-naphtho[2,3-d]imidazole], `CC(=O)c1ccc2nc([C@H](C)[C@H]3CC[C@@H](c4ccnc5ccc(F)cc54)CC3)[nH]c2c1` [Example B202, 1-(2-((R)-1-((1s,4S)-4-(6-fluoroquinolin-4-yl)cyclohexyl)ethyl)-1H-benzo[d]imidazol-6-yl)ethan-1-one] is 4.4-fold lower in EC50: 12.7 nM for the first, 2.9 nM for the second. The second is the more potent here.

`C[C@@H](c1nc2ccc(S(C)(=O)=O)cc2[nH]1)[C@H]1CC[C@H](c2ccnc3ccc(F)cc32)CC1` [Example B178, 6-fluoro-4-((1R,4r)-4-((R)-1-(6-(methylsulfonyl)-1H-benzo[d]imidazol-2-yl)ethyl)cyclohexyl)quinoline] and `C[C@@H](c1nc2ccc(NS(C)(=O)=O)cc2[nH]1)[C@H]1CC[C@@H](c2ccnc3ccc(F)cc32)CC1` [Example B180, N-(2-((R)-1-((1r,4R)-4-(6-fluoroquinolin-4-yl)cyclohexyl)ethyl)-1H-benzo[d]imidazol-6-yl)methanesulfonamide] are within 1.5-fold of each other in EC50: 283 nM for the first, 384 nM for the second.

`CC(=O)Nc1ccc2nc([C@H](C)[C@H]3CC[C@@H](c4ccnc5ccc(F)cc54)CC3)[nH]c2c1` [Example B179, N-(2-((R)-1-((1r,4R)-4-(6-fluoroquinolin-4-yl)cyclohexyl)ethyl)-1H-benzo[d]imidazol-6-yl)acetamide] and `CON(C)C(=O)c1ccc2nc([C@H](C)[C@H]3CC[C@@H](c4ccnc5ccc(F)cc54)CC3)[nH]c2c1` [Example B196] are within 1.5-fold of each other in EC50: 36.2 nM for the first, 26.5 nM for the second.

Going from `CC(c1nc2cc(C(=O)Nc3ccccc3)ccc2[nH]1)[C@H]1CC[C@@H](c2ccnc3ccc(F)cc32)CC1` (stereo partly drawn) [Example B182, 2-(1-((1s,4s)-4-(6-fluoroquinolin-4-yl)cyclohexyl)ethyl)-N-phenyl-1H-benzo[d]imidazole-5-carboxamide] to `CC(c1nc2cc(C(=O)NCC3(O)CCC3)ccc2[nH]1)[C@H]1CC[C@@H](c2ccnc3ccc(F)cc32)CC1` (stereo partly drawn) [Example B183, 2-(1-((1s,4s)-4-(6-fluoroquinolin-4-yl)cyclohexyl)ethyl)-N-((1-hydroxycyclobutyl)methyl)-1H-benzo[d]imidazole-5-carboxamide], the EC50 rises from 86.7 nM to > 1000 nM. The first is the more potent here.

Going from `CC(c1nc2cc(C(=O)NCC3(O)CCC3)ccc2[nH]1)[C@H]1CC[C@H](c2ccnc3ccc(F)cc32)CC1` (stereo partly drawn) [Example B184, 2-(1-((1r,4r)-4-(6-fluoroquinolin-4-yl)cyclohexyl)ethyl)-N-((1-hydroxycyclobutyl)methyl)-1H-benzo[d]imidazole-5-carboxamide] to `COC1CCC(NC(=O)c2ccc3[nH]c(C(C)[C@H]4CC[C@@H](c5ccnc6ccc(F)cc65)CC4)nc3c2)CC1` (stereo partly drawn) [Example B185, 2-(1-((1s,4s)-4-(6-fluoroquinolin-4-yl)cyclohexyl)ethyl)-N-(4-methoxycyclohexyl)-1H-benzo[d]imidazole-5-carboxamide], the EC50 falls from > 1000 nM to 122 nM.

First: COC1CCC(NC(=O)c2ccc3[nH]c(C(C)[C@H]4CC[C@H](c5ccnc6ccc(F)cc65)CC4)nc3c2)CC1 (stereo partly drawn) [Example B186, 2-(1-((1r,4r)-4-(6-fluoroquinolin-4-yl)cyclohexyl)ethyl)-N-(4-methoxycyclohexyl)-1H-benzo[d]imidazole-5-carboxamide]
Second: Cc1cc(C(=O)NC2CCC2)cc2[nH]c(C(C)C3CCC(c4ccnc5ccc(F)cc45)CC3)nc12 (stereo not drawn) [Example B206, N-cyclobutyl-2-(1-(4-(6-fluoroquinolin-4-yl)cyclohexyl)ethyl)-4-methyl-1H-benzo[d]imidazole-6-carboxamide]
The EC50 of the first is 7.1-fold higher: 193 nM for the first, 27.1 nM for the second.

Compared with `C[C@@H](c1nc2cc(F)c(F)c(Cl)c2[nH]1)[C@H]1CC[C@H](c2ccnc3ccc(F)cc32)CC1` [Example B190, 4-((1R,4r)-4-((R)-1-(7-chloro-5,6-difluoro-1H-benzo[d]imidazol-2-yl)ethyl)cyclohexyl)-6-fluoroquinoline], `CC(c1nc2cc(F)c(F)c(Cl)c2[nH]1)[C@H]1CC[C@@H](c2ccnc3ccc(F)cc32)CC1` (stereo partly drawn) [Example B203, 4-((1s,4s)-4-(1-(7-chloro-5,6-difluoro-1H-benzo[d]imidazol-2-yl)ethyl)cyclohexyl)-6-fluoroquinoline] is 1.5-fold higher in EC50: 5.74 nM for the first, 8.8 nM for the second.

First: C[C@@H](c1nc2ccc(C3=NCCO3)cc2[nH]1)[C@H]1CC[C@@H](c2ccnc3ccc(F)cc32)CC1 [Example B197, 2-(2-((R)-1-((1s,4S)-4-(6-fluoroquinolin-4-yl)cyclohexyl)ethyl)-1H-benzo[d]imidazol-6-yl)-4,5-dihydrooxazole]
Second: CCOC(=O)c1cc2nc([C@@H](C)C3CCC(c4ccnc5ccc(F)cc45)CC3)[nH]c2cc1C (stereo partly drawn) [Example B200, ethyl 2-((S)-1-((1s,4S)-4-(6-fluoroquinolin-4-yl)cyclohexyl)ethyl)-6-methyl-1H-benzo[d]imidazole-5-carboxylate]
The EC50 of the first is 9-fold lower: 8.1 nM for the first, 73.3 nM for the second. The first is the more potent here.

First: COC(=O)c1c(F)ccc2[nH]c([C@@H](C)[C@H]3CC[C@@H](c4ccnc5ccc(F)cc54)CC3)nc12 [Example B198, methyl 5-fluoro-2-((S)-1-((1s,4R)-4-(6-fluoroquinolin-4-yl)cyclohexyl)ethyl)-1H-benzo[d]imidazole-4-carboxylate]
Second: COC(=O)c1c(F)ccc2[nH]c([C@H](C)[C@H]3CC[C@@H](c4ccnc5ccc(F)cc54)CC3)nc12 [Example B199, methyl 5-fluoro-2-((R)-1-((1s,4S)-4-(6-fluoroquinolin-4-yl)cyclohexyl)ethyl)-1H-benzo[d]imidazole-4-carboxylate]
The EC50 of the first is 45-fold higher: 984 nM for the first, 21.9 nM for the second.

Compared with `CCOC(=O)c1cc2nc([C@H](C)[C@H]3CC[C@@H](c4ccnc5ccc(F)cc54)CC3)[nH]c2cc1C` [Example B201, ethyl 2-((R)-1-((1s,4S)-4-(6-fluoroquinolin-4-yl)cyclohexyl)ethyl)-6-methyl-1H-benzo[d]imidazole-5-carboxylate], `COC(=O)c1ccc(C(F)(F)F)c2[nH]c(C(C)[C@H]3CC[C@@H](c4ccnc5ccc(F)cc54)CC3)nc12` (stereo partly drawn) [Example B207] is 11-fold higher in EC50: 1.6 nM for the first, 18.4 nM for the second. The first is the more potent here.

Going from `C[C@@H](c1nc2c(F)cc(F)c(Cl)c2[nH]1)[C@H]1CC[C@@H](c2ccnc3ccc(F)cc32)CC1` [Example B204, 4-((1R,4s)-4-((S)-1-(7-chloro-4,6-difluoro-1H-benzo[d]imidazol-2-yl)ethyl)cyclohexyl)-6-fluoroquinoline] to `C[C@@H](c1nc2c(F)cc(F)c(Cl)c2[nH]1)[C@H]1CC[C@H](c2ccnc3ccc(F)cc32)CC1` [Example B205, 4-((1R,4r)-4-((R)-1-(7-chloro-4,6-difluoro-1H-benzo[d]imidazol-2-yl)ethyl)cyclohexyl)-6-fluoroquinoline], the EC50 rises from 6.79 nM to 28.9 nM (4.3-fold).
